Results from US20020035061A1, “COMPOSITIONS AND METHODS FOR TREATING INFECTIONS USING CATIONIC PEPTIDES ALONE OR IN COMBINATION WITH ANTIBIOTICS” (priority 1996, published 2002).
Values joined by “and” are separate entries in the source; they are usually repeats but may differ in a detail not shown here. Equal entries are not always repeated.

Columns and labels:
[1] = tested on: various bacterial strains; experiment: Broth dilution assay (MIC); format: cell-based
Description: Typically 100 μl of calcium and magnesium supplemented Mueller Hinton broth is dispensed into each well of a 96-well microtitre plate and 100 μl volumes of two-fold serial dilutions of the peptide are prepared across the plate. One row of wells receives no peptide and is used as a growth control. Each well is inoculated with approximately 5×10^5 CFU of bacteria and the plate is incubated at 35-37° C. for 16-20 hours.
For example, MIC values in μg/ml are established by broth dilution assay (Table 13) or by agarose dilution assay (Table 14) for a series of cationic peptides against various bacterial strains.

P. vulgaris = experiment: Agarose dilution assay (MIC); format: cell-based
[2] = tested on: E. coli strain ML-35 inner membrane; format: cell-based
[3] = tested on: S. epidermidis (ATCC # 12228); experiment: In vivo efficacy, S. epidermidis infection; conditions: iv
P. mirabilis = experiment: Agarose dilution assay (MIC); format: cell-based
[4] = tested on: P388, lymphocytic leukemia; experiment: Cell death by Cytotox (Promega) lactate dehydrogenase release; format: cell-based; conditions: LDH release
Description: (§1) In addition, APO-peptides and parent peptides are tested against a panel of cancer cell lines. Cell death is measured using the Cytotox (Promega) assay kit which measures the release of lactate dehydrogenase.
(§2) PBL, peripheral blood lymphocytes; HUVEC, human umbilical vein endothelial cells; H460,non-small lung tumor; K562, chronic myelogenous leukemia; DoHH-2, B-cell cell lymphoma; P388, lymphocytic leukemia; P388ADR, lymphocytic leukemia, multidrug resistant; MCF-7, breast carcinoma; MCF-7ADR, breast carcinoma, multidrug resistant.

[5] = tested on: H460, non-small lung tumor; experiment: as above; format: cell-based; conditions: LDH release
Description: as §1, §2

[6] = tested on: MCF-7ADR, breast carcinoma, multidrug resistant; experiment: as above; format: cell-based; conditions: LDH release
Description: as §1, §2

[7] = tested on: HUVEC, human umbilical vein endothelial cells; experiment: as above; format: cell-based; conditions: LDH release
Description: as §1, §2

MCF-7, breast carcinoma = experiment: as above; format: cell-based; conditions: LDH release
Description: as §1, §2

[8] = tested on: PBL, peripheral blood lymphocytes; experiment: as above; format: cell-based; conditions: LDH release
Description: as §1, §2

[9] = tested on: P388ADR, lymphocytic leukemia, multidrug resistant; experiment: as above; format: cell-based; conditions: LDH release
Description: as §1, §2

Liposome dye release = conditions: egg PC liposomes
Description: In this example, a dye pair consisting of the fluorescent molecule 8-aminonapthalene-1,3,6-trisulfonic acid (ANTS) and its quencher molecule p-xylene-bis-pyridinium bromide (DPX) are used. The mixture of free dye molecules, dye free liposomes, and liposomes containing encapsulated ANTS-DPX are separated by size exclusion chromatography. In the assay, the test peptide is incubated with the ANTS-DPX containing liposomes and the fluorescence due to ANTS release to the outside of the liposome is measured over time.
Using this assay, peptide activity, measured by dye release, is shown to be extremely sensitive to the composition of the liposomes at many liposome to peptide ratios (L/P) (FIG. 7). […] This […] selectivity may mimic that observed […] for bacterial cells in the presence of mammalian cells.
ANTS/DPX can be replaced with fluorescein isothiocyanate-labeled dextran (FD-4), molecular weight 4,400, in the egg PC liposomes.

S. pyogenes = experiment: Agarose dilution assay (MIC); format: cell-based; conditions: S. pyogenes strain SPY006
[10] = tested on: DoHH-2, B-cell cell lymphoma; experiment: Cell death by Cytotox (Promega) lactate dehydrogenase release; format: cell-based; conditions: LDH release
Description: as §1, §2

[11] = tested on: K562, chronic myelogenous leukemia; experiment: as above; format: cell-based; conditions: LDH release
Description: as §1, §2

S. aureus = experiment: microbe, parasite or virus in culture; format: cell-based
tolerant organisms = experiment: Overcoming tolerance: MBC and MIC by agarose dilution, antibiotic alone and with peptide; format: cell-based; conditions: combination of Vancomycin and peptide, organisms of Table 18
a bacterial strain = experiment: Killing curves, combination of cationic peptide and antibiotic agent; format: cell-based; conditions: in combination with vancomycin, FIG. 3E
Description: As used herein, “synergy” refers to the in vitro effect of administration of a combination of a cationic peptide and antibiotic agent such that (I) the fractional inhibitory concentration (FIC) is less than or equal to 0.5 in an FIC assay described herein; or (2) there is at least a 100-fold (21og10) increase in killing at 24 hours for the combination as compared with the antibiotic agent alone in a time kill curve assay as described herein.
Time kill curves resulting from combination of cationic peptide and antibiotic agent are compared to that resulting from agent alone.
The assay is performed as described above except that duplicate tubes are set up for each concentration of the antibiotic agent alone and of the combination of antibiotic agent and cationic peptide.

ILKKFPFFPFRRK [MBI 11A1CN]
MIC ([1]; A. calcoaceticus 8191): >256 µg/mL
MIC ([1]; E. cloacae 13047): >256 µg/mL
MIC ([1]; E. coli 25922): 512 µg/mL
MIC ([1]; E. coli DH1): 128 µg/mL
MIC ([1]; E. coli ECO003): >256 µg/mL
MIC ([1]; E. coli KL4): 256 µg/mL
MIC ([1]; E. faecalis 29212): >256 µg/mL
MIC ([1]; K. pneumoniae 13883): >256 µg/mL
MIC ([1]; K. pneumoniae B44): >256 µg/mL
MIC ([1]; P. aeruginosa 27853): >256 µg/mL
MIC ([1]; P. aeruginosa 8509041): >256 µg/mL
MIC ([1]; P. aeruginosa 9308077): >256 µg/mL
MIC ([1]; P. aeruginosa 9503024): >256 µg/mL
MIC ([1]; P. aeruginosa H650): >256 µg/mL
MIC ([1]; P. aeruginosa H652): >256 µg/mL
MIC ([1]; S. aureus 25923): 512 µg/mL
MIC ([1]; S. aureus 27217): >256 µg/mL
MIC ([1]; S. aureus 29213): 512 µg/mL
MIC ([1]; S. aureus 33593): >256 µg/mL
MIC ([1]; S. aureus 8402093): >256 µg/mL
MIC ([1]; S. aureus 8809014): >256 µg/mL
MIC ([1]; S. aureus 8809025): >256 µg/mL
MIC ([1]; S. epidermidis 14990): 512 µg/mL
MIC ([1]; S. maltophilia 13637): 256 µg/mL
MIC ([1]; S. maltophilia H361): 256 µg/mL
MIC ([1]; S. marcescens 13880): >256 µg/mL
MIC ([1]; S. marcescens B21): >256 µg/mL
MIC (P. vulgaris; P. vulgaris SBPV1): >128 µg/mL
Peptide MIC values (P. vulgaris; agarose dilution, P. vulgaris ATCC 13315): >128 µg/mL

ILKKWPWWPWRRK [MBI 11CN]
MIC ([1]; A. calcoaceticus 8191): 256 µg/mL
MIC ([1]; E. cloacae 13047): >128 µg/mL
MIC ([1]; E. coli 25922): 128 µg/mL
MIC ([1]; E. coli DH1): 64 µg/mL
MIC ([1]; E. coli ECO003): 64 µg/mL
MIC ([1]; E. coli KL4): 64 µg/mL
MIC ([1]; E. faecalis 29212): 64 µg/mL
MIC ([1]; K. pneumoniae 13883): >128 µg/mL
MIC ([1]; K. pneumoniae B44): 64 µg/mL
MIC ([1]; P. aeruginosa 27853): >128 µg/mL
MIC ([1]; P. aeruginosa 8509041): 256 µg/mL
MIC ([1]; P. aeruginosa 9308077): 128 µg/mL
MIC ([1]; P. aeruginosa 9503024): >256 µg/mL
MIC ([1]; P. aeruginosa H650): 256 µg/mL
MIC ([1]; P. aeruginosa H652): 256 µg/mL
MIC ([1]; S. aureus 25923): 32 µg/mL
MIC ([1]; S. aureus 27217): 64 µg/mL
MIC ([1]; S. aureus 29213): 32 µg/mL
MIC ([1]; S. aureus 33593): 64 µg/mL
MIC ([1]; S. aureus 8402093): 32 µg/mL
MIC ([1]; S. aureus 8809014): 32 µg/mL
MIC ([1]; S. aureus 8809025): 64 µg/mL
MIC ([1]; S. epidermidis 14990): 8 µg/mL
MIC ([1]; S. maltophilia 13637): 128 µg/mL
MIC ([1]; S. maltophilia H361): 64 µg/mL
MIC ([1]; S. marcescens 13880): >128 µg/mL
MIC ([1]; S. marcescens B21): >256 µg/mL
ONPG hydrolysis diminished compared to no pre-incubation ([2]; cells pre-incubated with valinomycin): approximately 50%
efficacy ([3]; 30 minutes post-infection): less activity
efficacy ([3]; 60 minutes post-infection): no significant effect
survival of the mice ([3]; formulation D): prolongs the survival of the mice
efficacy ([3]; treatment 15 minutes post-infection): Efficacy is observed at all three dose levels
MIC (P. mirabilis; P. mirabilis PM002): >128 µg/mL
LC50 ± S.E., P388 [4]: 30 µg/mL
LC50 ± S.E., H460 [5]: 200 µg/mL
LC50 ± S.E., MCF-7 ADR [6]: 17 ± 1 µg/mL
LC50 ± S.E., HUVEC [7]: >190 µg/mL
LC50 ± S.E., MCF-7 (MCF-7, breast carcinoma): 11.8 ± 9 µg/mL
LC50 ± S.E., PBL [8]: 57 µg/mL
LC50 ± S.E., P388 ADR [9]: 25 µg/mL
FD-4 (MW 4,400) release (Liposome dye release): No increase in FD-4 fluorescence

ILRWPWWPWRRK [MBI 11B7CN]
time of maximum activity in growth cycle [2]: 140 min and 230 min
MIC (P. mirabilis; P. mirabilis strain PM002): >128 µg/mL
MIC (S. pyogenes): 16 µg/mL
LC50 ± S.E., P388 [4]: 13.8 µg/mL
LC50 ± S.E., H460 [5]: 26 ± 25 µg/mL
LC50 ± S.E., DoHH-2 [10]: 16.5 ± 3 µg/mL
LC50 ± S.E., HUVEC [7]: 90 ± 23 µg/mL
LC50 ± S.E., MCF-7 (MCF-7, breast carcinoma): >700 µg/mL
LC50 ± S.E., PBL [8]: 24 ± 10 µg/mL
LC50 ± S.E., K562 [11]: 34 ± 25 µg/mL

KKWWRRALQGLKTAGPAIQSVLNK [MBI 21A2]
Ciprofloxacin MIC + Peptide (S. aureus; S. aureus SA25): 1 µg/mL
Peptide MIC + Ciprofloxacin (S. aureus; S. aureus SA25): 1 µg/mL
Peptide MIC Alone (S. aureus; S. aureus SA25, Ciprofloxacin section): 16 µg/mL
acquired resistance of S. aureus to piperacillin and ciprofloxacin (S. aureus; antibiotic agents combined with peptide): overcome
FIC (S. aureus; peptide + Ciprofloxacin, S. aureus SA25): 0.56

KWKSFIKKLTSAAKKVVTTAKPLISS [MBI 26]
tolerance (MBC:MIC) to Vancomycin (tolerant organisms): overcomes the tolerance
killing by combination compared with peptide or antibiotic agent alone (a bacterial strain): greater killing than either peptide or antibiotic agent alone
